These results are taken from patent US20040072990A1, “Antimicrobial peptides with reduced hemolysis and methods of their use” (priority 2002, published 2004).

Converted amounts (≈) assume the structure as drawn. Residues, ends and D or L forms follow the SMILES beside them.

One data set concerns human red blood cells. Kind of data set: Erythrocyte lysis (hemolysis). It counts as cell-based. The method, then:
Pac 521-530 were tested for hemolysis against human red blood cells (RBC). The RBCs with EDTA were rinsed 3 times with PBS (800 g, 10 min) and resuspended in PBS. The RBCs were diluted into 10% with phosphate-buffered saline and placed 50 μl into each eppendorf. The peptides that dissolved in PBS were then added to 50 μl of 10% solution of RBCs and incubated for an hour at 37° C. (final RBC concentration, 5% v/v). The samples were centrifuged at 800 g for 10 min […]. Various concentrations of peptides were incubated with pretreated RBC and the percentage of hemolysis determined. […]

For another data set, the system named is P. aeruginosa. Kind of data set: MIC test (NCCLS broth microdilution). It counts as cell-based, Pseudomonas aeruginosa. The procedure: (§1) Generally, the in vitro antimicrobial activities of antimicrobial agents were tested using standard NCCLS bacterial inhibition assays, or minimum inhibition concentration (MIC) tests. The MIC value is the lowest concentration of peptide at which the visible growth of test organisms is inhibited and reduced.
(§2) Briefly, overnight cultures of the test organisms were diluted to produce an inoculum containing approximately 10^5 colonies in Meuller-Hinton broth (MHB). From the peptide stock solution, serial two-dilutions of the peptides in 50 μl volume was prepared in a 96-well microtiter plate, and all wells were subsequently inoculated with the diluted culture of the test organisms. After 18 hours of incubation at 37° C., the results were assayed for turbidity (cell growth). MIC values were performed three times on different occasions (FIG. 2), and the median values are shown.
On the technique in general: In broth dilution the organism is exposed to a series of concentrations in liquid medium.

A further data set concerns S. epidermidis. Kind of data set: MIC test (NCCLS broth microdilution). Type of data set: cell-based, Staphylococcus epidermidis. The procedure:
as §1, §2

The next data set relates to S. aureus. As to the kind of experiment: MIC test (NCCLS broth microdilution). Type of data set: cell-based, Staphylococcus aureus. The method, then: (§3) The MIC value is the lowest concentration of peptide at which the visible growth of test organisms is inhibited and reduced.
as §2

For the next data set, the system named is B. substiis. As to the kind of experiment: MIC test (NCCLS broth microdilution). It counts as cell-based, Bacillus. substilis. The method, then: as §1, §2
The test system of a further data set is E. coli. Kind of data set: MIC test (NCCLS broth microdilution). Type of data set: cell-based. The method, then: as §3, §2
The next data set concerns B. cereus. As to the kind of experiment: MIC test (NCCLS broth microdilution). It counts as cell-based, Bacillus cereus. The procedure: as §1, §2
A further data set concerns B. pumilus. As to the kind of experiment: MIC test (NCCLS broth microdilution). It counts as cell-based, Bacillus pumilus. The method, then: as §1, §2

For the molecule `CC[C@H](C)[C@H](NC(=O)[C@H](Cc1c[nH]c2ccccc12)NC(=O)[C@H](CCCNC(=N)N)NC(=O)[C@H](CCCNC(=N)N)NC(=O)[C@H](Cc1c[nH]c2ccccc12)NC(=O)[C@@H](N)CCCCN)C(N)=O` [Pac 301 L, K W R R W I] (H-KWRRWI-NH2; N-terminus and C-terminus assumed), in the data set with human red blood cells, the “% lysis at 5 μg/ml” value came to 0.85%, the “% lysis at 50 μg/ml” value was determined as 6.8% and the “% lysis at 500 μg/ml” value stood at 14%.

For `CC[C@H](C)[C@H](NC(=O)[C@H](Cc1c[nH]c2ccccc12)NC(=O)[C@H](CCCCN)NC(=O)[C@@H](NC(=O)[C@H](Cc1c[nH]c2ccccc12)NC(=O)[C@@H](N)CCCCN)[C@@H](C)CC)C(N)=O` [Pac-305 L, K W I K W I] (H-KWIKWI-NH2; N-terminus and C-terminus assumed), in the data set on human red blood cells, the “% lysis at 5 μg/ml” value is reported as 0.74%, the “% lysis at 50 μg/ml” value was found to be 7.2% and the “% lysis at 500 μg/ml” value was 15%.

Turning to `CC[C@H](C)[C@H](NC(=O)[C@H](Cc1c[nH]c2ccccc12)NC(=O)[C@H](CCCNC(=N)N)NC(=O)[C@@H](NC(=O)[C@H](Cc1c[nH]c2ccccc12)NC(=O)[C@H](CCCNC(=N)N)NC(=O)[C@H](CCCNC(=N)N)NC(=O)[C@H](Cc1c[nH]c2ccccc12)NC(=O)[C@@H](N)CCCCN)C(C)C)C(N)=O` [Pac-525 L, K W R R W V R W I] (H-KWRRWVRWI-NH2; N-terminus and C-terminus assumed), in the data set on human red blood cells, the “% lysis at 5 μg/ml” value is given as 0.81%, the “% lysis at 50 μg/ml” value was 7.2% and the “% lysis at 500 μg/ml” value turned out to be 14%. In addition, in the data set on human red blood cells (human RBC, in words), the “hemolysis against RBC compared with other antimicrobial peptides” value was “substantially less hemolytic”.

On to `CC[C@H](C)[C@H](NC(=O)[C@H](Cc1ccccc1)NC(=O)[C@H](CCCNC(=N)N)NC(=O)[C@@H](NC(=O)[C@H](Cc1ccccc1)NC(=O)[C@H](CCCNC(=N)N)NC(=O)[C@H](CCCNC(=N)N)NC(=O)[C@H](Cc1ccccc1)NC(=O)[C@@H](N)CCCCN)C(C)C)C(N)=O` [Pac-527 L, K F R R F V R F I] (H-KFRRFVRFI-NH2; N-terminus assumed), for which the MIC is 8 µg/mL (≈ 6.31 µM) against P. aeruginosa (1X Phosphate Buffer); 4 µg/mL (≈ 3.16 µM) against P. aeruginosa (Non Phosphate Buffer); 4 µg/mL (≈ 3.16 µM) in the data set on S. epidermidis (1X Phosphate Buffer); 2 µg/mL (≈ 1.58 µM) in the data set on S. epidermidis (Non Phosphate Buffer); 4 µg/mL (≈ 3.16 µM) with S. aureus (1X Phosphate Buffer); 4 µg/mL (≈ 3.16 µM) with S. aureus (Non Phosphate Buffer). Moreover, the MIC with B. substiis (1X Phosphate Buffer) turned out to be 2 µg/mL (≈ 1.58 µM); in the data set on B. substiis (Non Phosphate Buffer), 4 µg/mL (≈ 3.16 µM); with E. coli (1X Phosphate Buffer), 8 µg/mL (≈ 6.31 µM); in the data set on E. coli (Non Phosphate Buffer) it was 4 µg/mL (≈ 3.16 µM); against B. cereus (1X Phosphate Buffer), 4 µg/mL (≈ 3.16 µM); in the data set on B. cereus (Non Phosphate Buffer) it was 4 µg/mL (≈ 3.16 µM). In addition, the minimal inhibitory concentration (MIC) amounted to 4 µg/mL (≈ 3.16 µM) in the data set on B. pumilus (1X Phosphate Buffer) and 2 µg/mL (≈ 1.58 µM) against B. pumilus (Non Phosphate Buffer).

In general, MIC refers to the least concentration at which growth counts as inhibited. Lower therefore signals a more susceptible organism.
